≈ marks a conversion by molar mass, not a printed value. Where two headings read alike, the source gives them in different places.
Assays:
SW620 cells = experiment: Cell proliferation assay (SRB), SW620; format: cell-based; details: for IC50: Homo sapiens, SW-620, 48 h, read-out: CELL IC50 SW620
Her-2 = biological target: T1, Her-2 (Homo sapiens, UniProt P04626); experiment: Her-2 receptor phosphorylation in BT474 cells (immunoblot); format: cell-based
T1 construct: For Her-2 and EGFR phosphorylation assays, cells (BT474 and A431, respectively) were incubated with various concentrations of compound; endogenous in cells; host or cells: BT474

SK-Br-3 cells = experiment: Cell proliferation assay (SRB), SK-Br-3; format: cell-based; details: for IC50: Homo sapiens, SK-BR-3, 48 h, read-out: CELL IC50 SKBr3
[1] = biological target: T2, recombinant cytoplasmic domain of HER-2 (Homo sapiens, UniProt P04626); experiment: Cell-free autophosphorylation kinase assay (ELISA), HER-2; format: biochemical
T2 construct: In a cell-free autophosphorylation assay using the recombinant cytoplasmic domain of HER-2

EGFR [2] = biological target: T3, EGFR (Homo sapiens, UniProt P00533); experiment: Cell-free autophosphorylation kinase assay (ELISA), EGFR; format: biochemical; set-up: Purified recombinant C-terminal fragment of each enzyme is incubated with ATP; details: read-out: Enzyme IC50 EGFR (converted)
Target sequence in this assay (P00533 669-1210 limits assumed): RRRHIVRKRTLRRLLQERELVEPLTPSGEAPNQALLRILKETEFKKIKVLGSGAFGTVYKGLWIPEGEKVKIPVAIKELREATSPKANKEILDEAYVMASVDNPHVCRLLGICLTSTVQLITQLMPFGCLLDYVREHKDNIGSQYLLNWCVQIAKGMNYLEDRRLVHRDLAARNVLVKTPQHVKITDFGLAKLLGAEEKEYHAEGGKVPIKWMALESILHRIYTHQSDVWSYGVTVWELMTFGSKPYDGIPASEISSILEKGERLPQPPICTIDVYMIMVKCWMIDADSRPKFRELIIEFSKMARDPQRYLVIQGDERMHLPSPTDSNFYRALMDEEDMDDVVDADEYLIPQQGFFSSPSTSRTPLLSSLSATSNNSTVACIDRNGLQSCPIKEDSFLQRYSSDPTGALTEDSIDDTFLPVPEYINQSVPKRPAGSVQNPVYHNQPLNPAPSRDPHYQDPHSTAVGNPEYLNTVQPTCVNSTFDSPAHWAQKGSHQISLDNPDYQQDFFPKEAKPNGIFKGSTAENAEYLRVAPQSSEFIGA

EGFR [3] = biological target: T3, EGFR; experiment: EGFR receptor phosphorylation in A431 cells (immunoblot); format: cell-based; set-up: They also repressed EGF-dependent phosphorylation of EGFR in A431 cells; endogenous in cells; host or cells: A431; details: for IC50 receptor phosphorylation A431: EGFR phosphorylation, 3 hours at 37° C., immunoblot; for IC50: span over the three compounds, read-out: EGF-dependent phosphorylation of EGFR in A431 cells IC50
Target sequence in this assay (P00533 25-1210): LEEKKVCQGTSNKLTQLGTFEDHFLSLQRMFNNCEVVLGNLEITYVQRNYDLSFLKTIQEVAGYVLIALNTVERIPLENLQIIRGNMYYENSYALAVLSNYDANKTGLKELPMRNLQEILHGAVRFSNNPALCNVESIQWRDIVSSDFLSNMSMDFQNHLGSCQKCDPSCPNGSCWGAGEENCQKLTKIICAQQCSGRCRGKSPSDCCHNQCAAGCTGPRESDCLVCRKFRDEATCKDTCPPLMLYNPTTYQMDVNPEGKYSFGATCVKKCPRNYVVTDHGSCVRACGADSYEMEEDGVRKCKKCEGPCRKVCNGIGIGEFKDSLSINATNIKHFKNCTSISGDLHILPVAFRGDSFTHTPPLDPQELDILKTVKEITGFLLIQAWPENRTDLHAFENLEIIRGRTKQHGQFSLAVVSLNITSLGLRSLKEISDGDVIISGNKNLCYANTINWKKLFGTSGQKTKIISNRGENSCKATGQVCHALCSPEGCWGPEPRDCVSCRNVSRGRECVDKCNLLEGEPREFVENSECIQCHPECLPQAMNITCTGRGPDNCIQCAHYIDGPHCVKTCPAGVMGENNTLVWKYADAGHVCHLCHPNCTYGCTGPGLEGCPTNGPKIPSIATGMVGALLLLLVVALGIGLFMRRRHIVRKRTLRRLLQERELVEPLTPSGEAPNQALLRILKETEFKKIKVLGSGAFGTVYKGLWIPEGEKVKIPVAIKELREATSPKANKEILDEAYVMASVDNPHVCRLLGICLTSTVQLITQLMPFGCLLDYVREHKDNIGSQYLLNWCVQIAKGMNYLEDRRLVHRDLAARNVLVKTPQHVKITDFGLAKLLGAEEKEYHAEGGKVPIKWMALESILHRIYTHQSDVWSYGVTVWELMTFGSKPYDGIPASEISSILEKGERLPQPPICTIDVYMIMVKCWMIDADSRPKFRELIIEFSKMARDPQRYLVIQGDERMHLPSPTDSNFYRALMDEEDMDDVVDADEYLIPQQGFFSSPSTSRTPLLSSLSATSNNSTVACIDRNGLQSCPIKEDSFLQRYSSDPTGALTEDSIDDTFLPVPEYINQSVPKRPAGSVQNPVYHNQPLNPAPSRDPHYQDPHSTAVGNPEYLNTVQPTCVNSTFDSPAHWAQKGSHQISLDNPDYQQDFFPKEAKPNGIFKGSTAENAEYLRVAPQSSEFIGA

A431 cells = experiment: Cell proliferation assay (SRB), A431; format: cell-based; details: Homo sapiens, A-431, 48 h, read-out: CELL IC50 A431
BT474 cells = experiment: Cell proliferation assay (SRB), BT474; format: cell-based, human; details: for IC50: Homo sapiens, BT-474, 144 h, read-out: CELL IC50 BT474
3T3 cells = experiment: Cell proliferation assay (SRB), 3T3; format: cell-based, mouse; details: for IC50: Mus musculus
[4] = biological target: mouse fibroblast cell line transfected with the HER-2 oncogene (3T3/neu) (UniProt P04626, cells depend on it, species not given); experiment: Cell proliferation assay (SRB), 3T3/neu; format: cell-based
MDA-MB-435 cells = experiment: Cell proliferation assay (SRB), MDA-MB-435; format: cell-based; details: for IC50: Homo sapiens, MDA-MB-435, 48 h, read-out: CELL IC50 MDA-MB-435
BT474 xenografts = experiment: BT474 tumor xenograft in nude mice; format: in vivo, mouse; details: day 21
[5] = tested on: xenografts of 3T3/neu cells; experiment: 3T3/neu tumor xenograft in nude mice; format: in vivo, mouse; details: for tumor growth inhibition: day 21
[6] = tested on: HER-2 overexpressing human xenograft models; experiment: HER-2 overexpressing human xenograft models (overall); format: in vivo, mouse; details: for MED in the HER-2 overexpressing human xenograft models: mouse, in vivo
xenografts of SUM-190 = experiment: SUM-190 tumor xenograft in nude mice; format: in vivo, mouse; details: 40 mg/kg/day PO, day 28
xenografts of SK-OV-3 = experiment: SK-OV-3 tumor xenograft in nude mice; format: in vivo, mouse; details: day 35
[7] = Her-2 phosphorylation, 3 hours at 37° C., immunoblot, read-out: IC50 receptor phosphorylation BT474 (converted)
[8] = ligand-independent receptor phosphorylation decreased by 50% (IC50) in BT474 cells, span over the three compounds
[9] = HER-2 enzyme activity reduced by 50% (IC50), span over the three inhibitors
[10] = NIH3T3, 48 h, EGFR −, Her-2 −, 2 days, SRB, read-out: CELL IC50 3T3
[11] = NIH3T3, span over the three compounds, read-out: IC50 isogenic untransfected cells (3T3)
[12] = EGFR −, Her-2 +++, 2 days, SRB, read-out: CELL IC50 3T3/NEU (converted)

T1 sequence (P04626 23-1255): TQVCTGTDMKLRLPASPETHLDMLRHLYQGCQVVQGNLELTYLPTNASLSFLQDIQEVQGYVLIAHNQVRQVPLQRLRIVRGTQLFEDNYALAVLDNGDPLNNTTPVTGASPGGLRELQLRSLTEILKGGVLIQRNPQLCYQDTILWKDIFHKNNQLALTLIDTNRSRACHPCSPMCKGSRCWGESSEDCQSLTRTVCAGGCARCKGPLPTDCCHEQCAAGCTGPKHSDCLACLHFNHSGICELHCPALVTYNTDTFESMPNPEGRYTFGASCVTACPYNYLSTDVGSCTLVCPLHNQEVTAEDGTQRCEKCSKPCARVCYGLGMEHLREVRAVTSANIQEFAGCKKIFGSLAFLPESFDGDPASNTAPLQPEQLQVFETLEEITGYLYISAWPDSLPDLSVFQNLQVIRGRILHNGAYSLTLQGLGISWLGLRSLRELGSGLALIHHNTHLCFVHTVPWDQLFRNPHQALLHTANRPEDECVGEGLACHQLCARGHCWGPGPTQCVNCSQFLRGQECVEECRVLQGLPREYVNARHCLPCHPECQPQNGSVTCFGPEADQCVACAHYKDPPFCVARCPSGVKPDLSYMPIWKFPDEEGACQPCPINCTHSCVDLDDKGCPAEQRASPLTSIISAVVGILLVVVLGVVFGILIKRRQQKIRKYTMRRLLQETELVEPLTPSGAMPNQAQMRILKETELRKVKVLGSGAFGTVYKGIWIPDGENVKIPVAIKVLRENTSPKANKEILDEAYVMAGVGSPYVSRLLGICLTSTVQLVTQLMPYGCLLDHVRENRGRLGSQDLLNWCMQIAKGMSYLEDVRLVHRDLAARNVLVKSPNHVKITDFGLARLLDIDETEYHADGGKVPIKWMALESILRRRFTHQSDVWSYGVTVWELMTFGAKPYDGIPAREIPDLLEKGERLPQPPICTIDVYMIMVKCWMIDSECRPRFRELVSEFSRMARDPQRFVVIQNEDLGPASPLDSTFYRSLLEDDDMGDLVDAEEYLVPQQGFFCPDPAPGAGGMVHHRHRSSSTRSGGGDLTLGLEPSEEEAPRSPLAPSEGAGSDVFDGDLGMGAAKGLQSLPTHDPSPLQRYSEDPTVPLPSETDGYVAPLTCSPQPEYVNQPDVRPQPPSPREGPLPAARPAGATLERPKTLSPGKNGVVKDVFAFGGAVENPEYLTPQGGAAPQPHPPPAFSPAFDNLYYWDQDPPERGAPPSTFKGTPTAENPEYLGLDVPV
T2 sequence (P04626 676-1255 limits assumed): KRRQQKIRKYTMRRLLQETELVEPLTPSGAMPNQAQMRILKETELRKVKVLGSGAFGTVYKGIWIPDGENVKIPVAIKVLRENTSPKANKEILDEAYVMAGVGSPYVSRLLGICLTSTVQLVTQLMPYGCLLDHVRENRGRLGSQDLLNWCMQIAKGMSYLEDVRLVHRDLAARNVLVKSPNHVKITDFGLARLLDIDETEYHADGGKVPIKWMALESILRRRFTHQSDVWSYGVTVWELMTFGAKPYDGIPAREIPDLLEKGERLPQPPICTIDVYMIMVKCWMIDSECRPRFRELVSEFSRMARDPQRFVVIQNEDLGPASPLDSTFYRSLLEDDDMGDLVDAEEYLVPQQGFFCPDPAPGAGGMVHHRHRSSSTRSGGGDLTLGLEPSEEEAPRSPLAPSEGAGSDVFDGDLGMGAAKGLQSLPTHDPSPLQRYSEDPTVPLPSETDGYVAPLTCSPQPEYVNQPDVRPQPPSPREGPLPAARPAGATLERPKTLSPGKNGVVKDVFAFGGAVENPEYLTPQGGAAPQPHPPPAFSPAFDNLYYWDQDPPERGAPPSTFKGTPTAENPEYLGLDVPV

Row | IC50 (SW620 cells; EGFR −, Her-2 −, 2 days, SRB) | IC50 (Her-2; [7]) | IC50 (Her-2; [8]) | IC50 (SK-Br-3 cells; EGFR −, Her-2 +++, 2 days, SRB) | inhibition of the HER-2 enzyme (in words) [1] | IC50 [1, 9] | IC50 (EGFR [2]) | IC50 receptor phosphorylation A431 (EGFR [3]) | IC50 (EGFR [3]) | IC50 (A431 cells; EGFR +++, Her-2 +, 2 days, SRB) | IC50 (BT474 cells; EGFR +, Her-2 +++, 6 days, SRB) | GI50 [4, 12] | IC50 (MDA-MB-435 cells; EGFR −, Her-2 −, 2 days, SRB) | SMILES | IC50 (3T3 cells; [10]) | IC50 (3T3 cells; [11]) | maximum tumor growth inhibition (BT474 xenografts; 10 mg/kg/day PO) | maximum tumor growth inhibition (BT474 xenografts; 40 mg/kg/day PO) | tumor growth inhibition ([5]; 20 mg/kg/day PO) | tumor growth inhibition ([5]; 40 mg/kg/day PO) | tumor growth inhibition ([5]; 80 mg/kg/day PO) | also measured
1 | 0.24 mg/L (≈ 0.432 µM) | 0.0135 µM | 0.005 to 0.023 µM | 0.0015 mg/L (≈ 0.0027 µM) | potent inhibitors | 0.033 to 0.065 µM | 0.0504 µM | 0.0031 mg/L (≈ 0.00557 µM) | 0.003 to 0.007 µM | 0.062 mg/L (≈ 0.111 µM) | 0.0014 mg/L (≈ 0.00252 µM) | 0.00522 µM | 0.47 mg/L (≈ 0.845 µM) | CCOc1cc2ncc(C#N)c(Nc3ccc(OCc4ccccc4)c(Cl)c3)c2cc1NC(=O)/C=C/CN(C)C [Example 1, (E)-N-{4-[4-(benzyloxy)-3-chloroanilino]-3-cyano-7-ethoxy-6-quinolinyl}-4-(dimethylamino)-2-butenamide] | 0.38 mg/L | 0.683 to 0.906 µM | – | – | – | – | – | IC50 ([1]; autophosphorylation, ELISA, read-out: Enzyme IC50 HER-2 (converted)): 0.0647 µM
2 | 0.29 mg/L (≈ 0.505 µM) | 0.0226 µM | 0.005 to 0.023 µM | 0.0015 mg/L (≈ 0.00261 µM) | potent inhibitors | 0.033 to 0.065 µM | 0.0331 µM | 0.0042 mg/L (≈ 0.00732 µM) | 0.003 to 0.007 µM | 0.069 mg/L (≈ 0.12 µM) | 0.0024 mg/L (≈ 0.00418 µM) | 0.00401 µM | 0.51 mg/L (≈ 0.888 µM) | CCOc1cc2ncc(C#N)c(Nc3ccc(OCc4cccc(F)c4)c(Cl)c3)c2cc1NC(=O)/C=C/CN(C)C [Example 3, (E)-N-(4-{3-chloro-4-[(3-fluorobenzyl)oxy]anilino}-3-cyano-7-ethoxy-6-quinolinyl)-4-(dimethylamino)-2-butenamide] | 0.52 mg/L | 0.683 to 0.906 µM | 59% | 96% | 65% | 97% | 99% | tumor growth inhibition, statistically-significant ([5]; 10 mg/kg/day PO, two other independent tests): 21-33%; minimum efficacious dose (MED) ([5]; smallest dose with sustained, statistically-significant (p<0.05) reduction of tumor growth): 10 mg/kg/day; Enzyme IC50 HER-2 ([1]; autophosphorylation, ELISA): 0.019 mg/L; tumor growth inhibition (xenografts of SUM-190): 94%; tumor growth inhibition (xenografts of SK-OV-3; 20 mg/kg/day PO): 86%; tumor growth inhibition (xenografts of SK-OV-3; 60 mg/kg/day PO): 91%; tumor behaviour after treatment was completed (in words) ([6]; after end of treatment): evidence of re-growth; tumor regression (in words) ([6]; during dosing): no decrease in tumor size below the initial size; MED in the HER-2 overexpressing human xenograft models [6]: 10 mg/kg/day
3 | – | – | – | – | is not | – | – | – | – | – | – | – | – | CCOc1cc2ncc(C#N)c(Nc3ccc(F)c(Cl)c3)c2cc1NC(=O)C=CCN(C)C [Example 20, 4-Dimethyl-but-2-enoic acid [4-(3-chloro-4-fluoro-phenylamino)-3-cyano-7-ethoxy-quinolin-6-yl]-amide] | – | – | – | – | – | – | – | CELL IC50 SW620 (SW620 cells; EGFR −, Her-2 −, 2 days, SRB): 0.32 mg/L; IC50 receptor phosphorylation BT474 (Her-2; Her-2 phosphorylation, 3 hours at 37° C., immunoblot): 0.080 mg/L (≈ 0.171 µM); CELL IC50 SKBr3 (SK-Br-3 cells; EGFR −, Her-2 +++, 2 days, SRB): 0.0071 mg/L; Enzyme IC50 HER-2 ([1]; autophosphorylation, ELISA): 0.58 mg/L; CELL IC50 BT474 (BT474 cells; EGFR +, Her-2 +++, 6 days, SRB): 0.020 mg/L; CELL IC50 3T3 (3T3 cells; EGFR −, Her-2 −, 2 days, SRB): 0.26 mg/L; CELL IC50 MDA-MB-435 (MDA-MB-435 cells; EGFR −, Her-2 −, 2 days, SRB): 0.34 mg/L

Row | SMILES | IC50 (SW620 cells; EGFR −, Her-2 −, 2 days, SRB) | IC50 (Her-2; [7]) | IC50 (Her-2; [8]) | IC50 (SK-Br-3 cells; EGFR −, Her-2 +++, 2 days, SRB) | inhibition of the HER-2 enzyme (in words) [1] | IC50 [1, 9] | IC50 (EGFR [2]) | IC50 receptor phosphorylation A431 (EGFR [3]) | IC50 (EGFR [3]) | IC50 (A431 cells; EGFR +++, Her-2 +, 2 days, SRB) | IC50 (BT474 cells; EGFR +, Her-2 +++, 6 days, SRB) | GI50 [4, 12] | IC50 (MDA-MB-435 cells; EGFR −, Her-2 −, 2 days, SRB) | IC50 (3T3 cells; [10]) | IC50 (3T3 cells; [11]) | maximum tumor growth inhibition (BT474 xenografts; 10 mg/kg/day PO) | maximum tumor growth inhibition (BT474 xenografts; 40 mg/kg/day PO) | tumor growth inhibition ([5]; 20 mg/kg/day PO) | tumor growth inhibition ([5]; 40 mg/kg/day PO) | tumor growth inhibition ([5]; 80 mg/kg/day PO) | also measured
4 | CCOc1cc2ncc(C#N)c(Nc3ccc(OCc4ccccn4)c(Cl)c3)c2cc1NC(=O)/C=C/CN(C)C [Example 2, (E)-N-{4-[3-chloro-4-(2-pyridinylmethoxy)anilino]-3-cyano-7-ethoxy-6-quinolinyl}-4-(dimethylamino)-2-butenamide] | – | – | – | – | potent inhibitors | – | – | – | – | – | – | – | – | – | – | 76% | 95% | 53% | 95% | 98% | IC50 (SW620 cells): 0.44 mg/L (≈ 0.79 µM); IC50 (SK-Br-3 cells): 0.001 mg/L (≈ 0.0018 µM); IC50 (A431 cells): 0.045 mg/L (≈ 0.0808 µM); IC50 (BT474 cells): 0.0013 mg/L (≈ 0.00233 µM); IC50 (3T3 cells; NIH3T3, 48 h, read-out: CELL IC50 3T3): 0.39 mg/L; IC50 (3T3 cells; NIH3T3, read-out: IC50 isogenic untransfected cells (3T3)): 0.683 to 0.906 µM; MED in the HER-2 overexpressing human xenograft models [6]: ~10 mg/kg/day; GI50 ([4]; read-out: CELL IC50 3T3/NEU, mouse fibroblast cell line transfected with the her-2 oncogene (3t3/neu)): 0.00323 µM; IC50 (MDA-MB-435 cells): 0.44 mg/L (≈ 0.79 µM)

Reference: patent US7982043B2, “Protein tyrosine kinase enzyme inhibitors” (Wyeth LLC, priority 2003, dated 2011)
